Data: article PMC6828666, “Discovery of holoenzyme-disrupting chemicals as substrate-selective CK2 inhibitors” (Scientific Reports, 2019)

Tests used:
[1] = test system: survivin expression in MCF10A cells; assay: Western blot of survivin expression; type: cell-based, human; conditions: 24 h, 25 μM 6 or 30 μM TAT-Pc
Experimental: Figure 5 Cellular effects of compounds 3, 4 and 6. MCF10A cells were incubated for 24 h with either DMSO or 30 μM TAT or 30 μM TAT-Pc or 25 μM 6 (a) or with increasing concentrations of 6 (b) or 3 (c). MCF10A cells were incubated for 48 h with either DMSO or with increasing concentrations of 3 or 6 (d). Cells were then lysed and analyzed by western blot with the indicated antibodies. Blot images are representative of at least three independent experiments. Uncropped blots are shown in Supplementary Fig. S16. (e) MDA-MB231 cells were treated with 40 μM 6 (⚬), 4 (▴) or 3 (X). (f) MDA-MB231 cells were treated for 30 h with increasing concentrations of 6 (⚬) or 4 (▴). Insert: cells were treated for 30 h with 80 μM 6 or 10 μM CX-4945. […] Cell death was automatically quantified from images captured every 3 h for the duration of the experiments using an Essen IncuCyte Zoom live-cell microscopy incubator. […]
Cells were lysed in RIPA buffer (10 mM Tris-HCl pH 7.4, 150 mM NaCl, 1% Triton X-100, 0.1% SDS, 0.5% DOC and 1 mM EDTA) containing both protease- and phosphatase-inhibitor cocktails (Sigma-Aldrich; P8340, P2850, P5726). Cell homogenates were quantified using BCA protein Assay kit (Thermo Scientific). […] Luminata Forte Western HRP substrate (Millipore) was added and membranes were read with Fusion Fx7 (PerkinElmer). […] Images were analyzed and band intensities were quantified using ImageJ software. […]

[2] = test system: CK2β-depleted MCF10A cells (ΔCK2β); assay: Cell growth inhibition in CK2β-depleted cells (IncuCyte); type: cell-based, human; conditions: 50 μM; ΔCK2β vs WT MCF10A
Experimental: Cells grown on 96-well flat-bottomed plates (Corning Falcon) were tracked using an Essen IncuCyte Zoom live-cell microscopy instrument, an automated live cell imager with high-throughput capabilities and built-in data analysis. Experiments were conducted at 37 °C and 5% CO2. The software incorporated into the IncuCyte Zoom was used to analyze the images.
MCF10A and MDA-MB231 cells were seeded into 96-well plates at a density (1 × 10^4 and 2 × 10^4 cells/well, respectively) and allowed to attach overnight. Bright field images were captured every 3 h for the duration of the experiment. The detection software was calibrated specifically for MCF10A and MDA-MB231 to ensure accurate distinction of cells from empty space. Cell proliferation data were obtained by the cell confluence increment in each of the treatments and expressed as percentage relative to that of control cells.
Fig. S9. […] (a) MCF10A cells were incubated with increasing concentrations of 6 for 24 h. (b) Inset: western blot analysis of CK2 subunits in parental MCF10A cells (WT) or CK2β knockdown MCF10A cells (∆CK2β). Uncropped blots are shown in Supplementary Fig. S16. MCF10A WT (r,p) or MCF10A ∆CK2β (○,●) were incubated with DMSO (r,○) or 50 μM 6 (p,●) for the indicated time. Cell growth was monitored using an Essen IncuCyte Zoom live-cell microscopy incubator. Images were captured every 15 min for the duration of the experiment. […]

[3] = target: CK2α/CK2β interaction (Homo sapiens, UniProt P68400); assay: In vitro CK2α/CK2β interaction assay ([35S]methionine-labeled CK2α, plate-bound MBP-CK2β); type: binding
Experimental: The CK2α/CK2β interaction assay involved competition between plate-bound MBP-CK2β and the selected compounds for binding to soluble [^35S]methionine-labeled CK2α (10^5 cpm). The assays were performed in reacti-Bind streptavidin-coated high-binding-capacity 96-well plates (Pierce) in which each well was coated with 250 ng of biotinylated MBP-CK2β in 50 mM Tris/HCl, pH 7.2, and 0.4 M NaCl buffer. The compounds and [^35S]methionine-labeled CK2α were added in each well in the same buffer, incubated for 1 h at room temperature and triple-washed, after which the radioactivity of each well was determined using a scintillation counter. Positive control (100% competition) was determined with a 10-fold molar excess of untagged CK2α, and negative control (0% competition) was performed in the absence of competitor[35].

CK2α/CK2β interaction, sequence (P68400 whole entry): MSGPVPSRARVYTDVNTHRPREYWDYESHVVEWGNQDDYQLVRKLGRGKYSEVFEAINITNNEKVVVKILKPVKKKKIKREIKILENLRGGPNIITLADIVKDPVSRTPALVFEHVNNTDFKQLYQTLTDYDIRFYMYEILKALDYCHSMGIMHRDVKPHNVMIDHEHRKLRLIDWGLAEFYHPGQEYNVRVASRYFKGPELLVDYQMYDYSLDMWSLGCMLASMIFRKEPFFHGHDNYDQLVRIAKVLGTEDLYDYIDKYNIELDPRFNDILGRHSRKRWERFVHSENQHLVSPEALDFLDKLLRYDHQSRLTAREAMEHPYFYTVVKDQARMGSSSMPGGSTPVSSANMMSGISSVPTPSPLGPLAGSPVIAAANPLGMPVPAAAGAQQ

COc1[nH]c2ccc(F)cc2c1C(=O)OCC1CCN(CCNS(=O)(=O)c2ccccc2)CC1.Cl [Compound 6]
survivin expression [1]: decreased | growth inhibition in CK2β-depleted cells compared with WT cells [2]: twice more pronounced

COc1[nH]c2ccc(F)cc2c1C(=O)OCC1CCN(CCNS(C)(=O)=O)CC1 [Compound 1]
IC50 [3]: ~80 µM | reduction of bound radioactive CK2α ([3]; single dose 300 μM): about 75%
